Patent publication US9115127B2 (AMGEN INC., priority 2010, dated 2015)
Structures can show the parent of a compound that is named as a salt.

These molecules were tested against T1, wild-type human ALK (cytoplasmic domain, amino acids 1058-1620, N-terminal GST fusion) (Homo sapiens, UniProt Q9UM73) (assay: ALK Inhibition in Enzyme Assay (Lance TR-FRET kinase assay)).
T1 construct: The cytoplasmic domain (amino acids 1058-1620) of wild-type human ALK; GST (N); made in house; host or cells: SF9 insect cells
T1 sequence (Q9UM73 1058-1620): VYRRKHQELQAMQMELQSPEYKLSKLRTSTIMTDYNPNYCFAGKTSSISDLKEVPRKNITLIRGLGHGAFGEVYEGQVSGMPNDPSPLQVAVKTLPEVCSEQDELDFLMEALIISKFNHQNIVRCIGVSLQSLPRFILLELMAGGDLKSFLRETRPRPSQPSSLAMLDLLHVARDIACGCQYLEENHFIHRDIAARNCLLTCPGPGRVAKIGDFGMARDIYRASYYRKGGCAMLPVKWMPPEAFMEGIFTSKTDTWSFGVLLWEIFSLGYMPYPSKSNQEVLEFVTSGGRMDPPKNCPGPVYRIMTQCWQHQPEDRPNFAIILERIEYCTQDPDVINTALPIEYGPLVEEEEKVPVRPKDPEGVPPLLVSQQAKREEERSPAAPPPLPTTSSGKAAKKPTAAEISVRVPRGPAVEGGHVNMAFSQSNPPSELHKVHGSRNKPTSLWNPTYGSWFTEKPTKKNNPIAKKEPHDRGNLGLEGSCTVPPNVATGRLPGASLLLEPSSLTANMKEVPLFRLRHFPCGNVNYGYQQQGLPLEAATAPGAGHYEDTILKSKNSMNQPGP
Format: biochemical
Experimental: ALK Inhibition in Enzyme Assay
Kinase activity of the purified protein was assessed using a Lance® TR-FRET assay. […] The reaction was allowed to proceed for 90 minutes at room temperature and was then terminated with 20 mM EDTA in 50 mM Tris (pH 7.5), 100 mM NaCl, 0.05% BSA, and 0.1% Tween-20. Phosphorylation of the peptide substrate was detected using the Lance® detection reagents streptavidin-allophycocyanin (SA-APC) and Eu-W1024 anti-phosphotyrosine antibody (PT66) from Perkin Elmer Life Sciences (Waltham, Mass.). The plates were read on a RUBY star plate reader (BMG LABTECH, Cary, N.C.) with an excitation wavelength of 320 nm.

Compound | IC50
CC(C)NC[C@H]1CC[C@@H](n2/c(=N/C(=O)c3ccc(F)cc3)[nH]c3ccc(CN4CCCCC4)cc32)CC1 [Example 36, (E)-4-Fluoro-N-(1-(cis-4-((isopropylamino)methyl)cyclohexyl)-6-(piperidin-1-ylmethyl)-1H-benzo[d]imidazol-2(3H)-ylidene)benzamide] | 100 to 1000 nM
O=C(/N=c1\[nH]c2ccc(CN3CCCCC3)cc2n1[C@H]1CC[C@@H](CO)CC1)c1ccc(F)cc1 [Example 37, (E)-4-Fluoro-N-(1-(cis-4-(hydroxymethyl)cyclohexyl)-6-(piperidin-1-ylmethyl)-1H-benzo[d]imidazol-2(3H)-ylidene)benzamide] | 100 to 1000 nM
C=CCNS(=O)(=O)c1cc(C(=O)/N=c2\[nH]c3ccc(CN4CCCCC4)cc3n2[C@H]2CC[C@@H](C(N)=O)CC2)ccc1F [Example 38, (E)-3-(N-Allylsulfamoyl)-N-(1-(cis-4-carbamoylcyclohexyl)-6-(piperidin-1-ylmethyl)-1H-benzo[d]imidazol-2(3H)-ylidene)-4-fluorobenzamide] | < 50 nM
O=C(/N=c1\[nH]c2ccc(CN3CCCCC3)cc2n1[C@H]1CC[C@@H](C(=O)NCC(F)(F)F)CC1)c1ccc(F)cc1 [Example 39, (E)-4-Fluoro-N-(6-(piperidin-1-ylmethyl)-1-(cis-4-(2,2,2-trifluoroethylcarbamoyl)cyclohexyl)-1H-benzo[d]imidazol-2(3H)-ylidene)benzamide] | < 50 nM
CC(C)CCNC(=O)[C@H]1CC[C@@H](n2/c(=N/C(=O)c3ccc(F)cc3)[nH]c3ccc(CN4CCCCC4)cc32)CC1 [Example 40, (E)-4-Fluoro-N-(1-(cis-4-(isopentylcarbamoyl)cyclohexyl)-6-(piperidin-1-ylmethyl)-1H-benzo[d]imidazol-2(3H)-ylidene)benzamide] | 50 to 100 nM
CC(C)NC(=O)[C@H]1CC[C@@H](n2/c(=N/C(=O)c3ccc(F)cc3)[nH]c3ccc(CN4CCOCC4)cc32)CC1 [Example 41, (E)-4-Fluoro-N-(1-(cis-4-(isopropylcarbamoyl)cyclohexyl)-6-(morpholinomethyl)-1H-benzo[d]imidazol-2(3H)-ylidene)benzamide] | < 50 nM
O=C(/N=c1\[nH]c2ccc(CN3CCOCC3)cc2n1[C@H]1CC[C@@H](C(=O)O)CC1)c1ccc(F)cc1 [Example 42, cis-4-((E)-2-(4-Fluorobenzoylimino)-6-(morpholinomethyl)-2,3-dihydro-1H-benzo[d]imidazol-1-yl)cyclohexanecarboxylic acid] | 1000 to 5000 nM
COC(=O)[C@H]1CC[C@@H](n2/c(=N/C(=O)c3ccc(F)cc3)[nH]c3cnc(OCCN4CCCCC4)cc32)CC1 [Example 44, cis-Methyl 4-((E)-2-(4-fluorobenzoylimino)-6-(2-(piperidin-1-yl)ethoxy)-2,3-dihydro-1H-imidazo[4,5-c]pyridin-1-yl)cyclohexanecarboxylate] | < 50 nM
CC(C)NC(=O)[C@H]1CC[C@@H](n2/c(=N/C(=O)c3ccc(F)cc3)[nH]c3cnc(OCCN4CCCCC4)cc32)CC1 [Example 45, (E)-4-Fluoro-N-(1-(cis-4-(isopropylcarbamoyl)cyclohexyl)-6-(2-(piperidin-1-yl)ethoxy)-1H-imidazo[4,5-c]pyridin-2(3H)-ylidene)benzamide] | < 50 nM
CC(C)N(C)C(=O)[C@H]1CC[C@@H](n2/c(=N/C(=O)c3ccc(F)cc3)[nH]c3ccc(CN4CCCCC4)cc32)CC1 [Example 46, (E)-4-Fluoro-N-(1-(cis-4-(isopropyl(methyl)carbamoyl)cyclohexyl)-6-(piperidin-1-ylmethyl)-1H-benzo[d]imidazol-2(3H)-ylidene)benzamide] | < 50 nM
O=C(/N=c1\[nH]c2ccc(CN3CCCCC3)cc2n1[C@H]1CC[C@@H](C(=O)N2CCNCC2)CC1)c1ccc(F)cc1 [Example 47, (E)-4-Fluoro-N-(1-(cis-4-(piperazine-1-carbonyl)cyclohexyl)-6-(piperidin-1-ylmethyl)-1H-benzo[d]imidazol-2(3H)-ylidene)benzamide] | < 50 nM
CC(C)NC(=O)[C@H]1CC[C@@H](n2/c(=N/C(=O)c3ccc(F)cc3)[nH]c3ccc(CN4CCC(CC(=O)O)CC4)cc32)CC1 [Example 48, 2-(1-(((E)-2-(4-Fluorobenzoylimino)-3-(cis-4-(isopropylcarbamoyl)cyclohexyl)-2,3-dihydro-1H-benzo[d]imidazol-5-yl)methyl)piperidin-4-yl)acetic acid] | < 50 nM
O=C(/N=c1\[nH]c2ccc(CN3CCCCC3)cc2n1[C@H]1CC[C@@H](C(=O)Nc2nccs2)CC1)c1ccc(F)cc1 [Example 49, (E)-4-Fluoro-N-(6-(piperidin-1-ylmethyl)-1-(cis-4-(thiazol-2-ylcarbamoyl)cyclohexyl)-1H-benzo[d]imidazol-2(3H)-ylidene)benzamide] | 50 to 100 nM
CC(C)NC(=O)[C@H]1CC[C@@H](n2/c(=N/C(=O)c3ccc(F)cc3)[nH]c3cnc(OCCN4CCOCC4)cc32)CC1 [Example 51, (E)-4-Fluoro-N-(1-(cis-4-(isopropylcarbamoyl)cyclohexyl)-6-(2-morpholinoethoxy)-1H-imidazo[4,5-c]pyridin-2(3H)-ylidene)benzamide] | < 50 nM
CC(C)NC(=O)[C@H]1CC[C@@H](n2/c(=N/C(=O)c3ccc(F)cc3)[nH]c3ccc(CN4CCC[C@@H]4C(=O)O)cc32)CC1 [Example 53, (R)-1-(((E)-2-(4-Fluorobenzoylimino)-3-(cis-4-(isopropylcarbamoyl)cyclohexyl)-2,3-dihydro-1H-benzo[d]imidazol-5-yl)methyl)pyrrolidine-2-carboxylic acid hydrochloride] | < 50 nM
CC(C)NC(=O)[C@H]1CC[C@@H](n2/c(=N/C(=O)c3ccc(F)cc3)[nH]c3ccc(CN4CCC[C@H]4C(=O)O)cc32)CC1 [Example 54, (S)-1-(((E)-2-(4-Fluorobenzoylimino)-3-(cis-4-(isopropylcarbamoyl)cyclohexyl)-2,3-dihydro-1H-benzo[d]imidazol-5-yl)methyl)pyrrolidine-2-carboxylic acid hydrochloride] | < 50 nM
C[C@@H]1CN(C(=O)OC(C)(C)C)CCN1C(=O)[C@H]1CC[C@@H](n2/c(=N/C(=O)c3ccc(F)cc3)[nH]c3cnc(OCCN4CCCCC4)cc32)CC1 [Example 56, (R)-tert-Butyl 4-(cis-4-((E)-2-(4-fluorobenzoylimino)-6-(2-(piperidin-1-yl)ethoxy)-2,3-dihydro-1H-imidazo[4,5-c]pyridin-1-yl)cyclohexanecarbonyl)-3-methylpiperazine-1-carboxylate] | 100 to 1000 nM
C[C@@H]1CN(C(=O)OC(C)(C)C)CCN1C(=O)[C@H]1CC[C@@H](n2/c(=N/C(=O)c3ccc(C#N)cc3)[nH]c3cnc(OCCN4CCCCC4)cc32)CC1 [Example 57, (R)-tert-Butyl 4-(cis-4-((E)-2-(4-cyanobenzoylimino)-6-(2-(piperidin-1-yl)ethoxy)-2,3-dihydro-1H-imidazo[4,5-c]pyridin-1-yl)cyclohexanecarbonyl)-3-methylpiperazine-1-carboxylate] | < 50 nM
C[C@@H]1CNCCN1C(=O)[C@H]1CC[C@@H](n2/c(=N/C(=O)c3ccc(C#N)cc3)[nH]c3cnc(OCCN4CCCCC4)cc32)CC1 [Example 58, (E)-4-Cyano-N-(1-(cis-4-((R)-2-methylpiperazine-1-carbonyl)cyclohexyl)-6-(2-(piperidin-1-yl)ethoxy)-1H-imidazo[4,5-c]pyridin-2(3H)-ylidene)benzamide] | < 50 nM
C[C@@H]1CNCCN1C(=O)[C@H]1CC[C@@H](n2/c(=N/C(=O)c3ccc(F)cc3)[nH]c3cnc(OCCN4CCCCC4)cc32)CC1 [Example 59, (E)-4-Fluoro-N-(1-(cis-4-((R)-2-methylpiperazine-1-carbonyl)cyclohexyl)-6-(2-(piperidin-1-yl)ethoxy)-1H-imidazo[4,5-c]pyridin-2(3H)-ylidene)benzamide] | < 50 nM
C[C@H]1CN(C(=O)[C@H]2CC[C@@H](n3/c(=N/C(=O)c4ccc(F)cc4)[nH]c4cnc(OCCN5CCCCC5)cc43)CC2)CCN1C(=O)OC(C)(C)C [Example 60, (S)-tert-Butyl 4-(cis-4-((E)-2-(4-fluorobenzoylimino)-6-(2-(piperidin-1-yl)ethoxy)-2,3-dihydro-1H-imidazo[4,5-c]pyridin-1-yl)cyclohexanecarbonyl)-2-methylpiperazine-1-carboxylate] | 1000 to 5000 nM
C[C@H]1CN(C(=O)[C@H]2CC[C@@H](n3/c(=N/C(=O)c4ccc(F)cc4)[nH]c4cnc(OCCN5CCCCC5)cc43)CC2)CCN1 [Example 61, (E)-4-Fluoro-N-(1-(cis-4-((S)-3-methylpiperazine-1-carbonyl)cyclohexyl)-6-(2-(piperidin-1-yl)ethoxy)-1H-imidazo[4,5-c]pyridin-2(3H)-ylidene)benzamide] | < 50 nM
C[C@H]1CN(C(=O)[C@H]2CC[C@@H](n3/c(=N/C(=O)c4ccccc4)[nH]c4cnc(OCCN5CCCCC5)cc43)CC2)CCN1 [Example 62] | 50 to 100 nM
CC(C)NC(=O)[C@]1(O)CC[C@H](n2/c(=N/C(=O)c3ccc(F)cc3)[nH]c3cnc(OCCN4CCCCC4)cc32)CC1 [Example 63, (E)-4-Fluoro-N-(1-(trans-4-hydroxy-4-(isopropylcarbamoyl)cyclohexyl)-6-(2-(piperidin-1-yl)ethoxy)-1H-imidazo[4,5-c]pyridin-2(3H)-ylidene)benzamide] | 50 to 100 nM
CC(C)(C)OC(=O)N1CCC(n2/c(=N/C(=O)c3ccccc3)[nH]c3cnc(OCCN4CCCCC4)cc32)CC1 [Example 64, (E)-tert-Butyl 4-(2-(benzoylimino)-6-(2-(piperidin-1-yl)ethoxy)-2,3-dihydro-1H-imidazo[4,5-c]pyridin-1-yl)piperidine-1-carboxylate] | 100 to 1000 nM
